# Values of other authors, collected in patent US12090156B2, “Application of CB-839 in preparation of drug for inhibiting corneal neovascularization (CNV)” (Institute of Ophthalmology Affiliated to Shandong First …, priority 2022, dated 2024).
# Tested on: cancer cell lines such as triple-negative breast cancer (TNBC), lung adenocarcinoma, chondrosarcoma, and lymphoma cell lines
smiles,measurement,value
O=C(Cc1cccc(OC(F)(F)F)c1)Nc1ccc(CCCCc2nnc(NC(=O)Cc3ccccn3)s2)nn1 [CB-839],antiproliferative activity,significant antiproliferative activity
